Data set [1] is described as follows: Body weight of xenograft mice (FIG. 2B). Format: in vivo, athymic nude mice. The settings on record: IP; romidepsin 0.75 mg/kg, DMPatA 0.075 mg/kg. From the text: FIGS. 2A and 2B illustrate the results of a MIA PaCa-2 xenograft model of PDAC in male athymic nude mice. FIG. 2A compares tumor growth (mm^3) in mice treated with the indicated concentrations of combination, romidepsin and DMPatA using IP route and vehicles described in the materials and methods section below. FIG. 2B compares body weight (g) of mice treated with the combination and single agents following treatment. FIGS. 2C and 2D compare quantification of H3K9ac and c-MYC antibodies. Frozen sections from MIA PaCa-2 xenograft tumor tissues were subjected to immunohistochemical analysis using antibodies against H3K9ac, and c-MYC. Fluorescence images were captured using fluorescent microscopy and the fluorescent signal from H3K9ac and c-MYC antibodies were quantified. To quantify fluorescence intensity at least 500 cells per condition were measured for each antibody at 40× magnification. The median of the signal intensity is shown. Statistical significance was determined by one-way ANOVA using Tukey multiple comparisons test, ****p value<0.0001.
Animal studies were performed according to Institutional Animal Care and Use Committee (IACUC) protocol number AC-AABD2601. Following the establishment of initial dose levels for individual drugs, efficacy of the combination and single agents in a MIA PaCa-2 xenograft model was assessed at a tolerable dose and schedule. […]

Data set [2] deals with MIA PaCa-2 cells. The experiment in a line: Glutamine consumption/rescue of mitochondrial function (ΔOCR) (FIG. 8C right). The format is cell-based. The following applies: cells starved of glucose, glutamine and pyruvate 1 h, then glutamine. The protocol: (§1) FIG. 8C left panel presents the results of metabolic flux analysis showing basal mitochondrial respiration (OXPHOS) (oxygen consumption rate, OCR) in MIA PaCa-2 cells following treatment with combinations or single drugs. Treatment was for a total of 18 h, as mentioned in FIG. 8A. Statistical significance was determined by one-way ANOVA, ***p value<0.001, *p value<0.01. FIG. 8C right panel presents the results of quantification of glutamine consumption. Cells were treated as mentioned in FIG. 8A. Prior to the metabolic measurements cells were starved of glucose, glutamine, and pyruvate for 1-hour after which glutamine was added and response was recorded as ΔOCR (i.e. OCR before and after glutamine addition). Statistical significance was determined by one-way ANOVA, ****p value<0.0001, ***p value<0.0005.
(§2) Because reprograming/augmentation of cellular metabolism by c-MYC is known to support oncogenesis, the Seahorse XF analyzer was used to assess the impact of the treatments on c-MYC-driven metabolism including ATP production, glycolysis, and mitochondrial oxidative phosphorylation (OXPHOS). Extracellular acidification rates, also known as proton efflux rate (PER), were measured for glycolysis and mitochondrial oxygen consumption rates (OCR) for OXPHOS. We utilized the 6 h exposure followed by 18 h washout strategy for romidepsin described earlier. […]

Data set [3] concerns MIA PaCa-2 cells. The experiment in a line: Metabolic flux analysis, basal mitochondrial respiration (OCR) (FIG. 8C left). Format: cell-based. The following applies: MIA PaCa-2, total 18 h. The protocol:
as §1, §2

Another data set relates to MIA PaCa-2 and KLM cells. The experiment in a line: Replication fork dynamics. Format: cell-based. The following applies: 24 hours. An excerpt:
Having observed R-loop accumulation following treatment with the combination, it was hypothesized that hypertranscription, persistent hyperacetylation, and R-loop accumulation could increase the incidence of transcription replication conflicts, genome instability, and DNA damage and contribute to cell death. In response to DNA damage, replication protein A2 (RPA2) is phosphorylated at multiple sites by different protein kinases, including ATM, ATR, and DNA-PK, while the serine threonine-protein kinase, Chk1 (checkpoint kinase 1), is phosphorylated and activated by ATR. […] Drug treatments were for 24 hours (i.e., romidepsin treatment in combination or single agent romidepsin was 6 hours followed by 18-hour incubation with 2 nM DMPatA or with fresh medium respectively).

With `C/C=C1\NC(=O)[C@H]2CSSCC/C=C/[C@H](CC(=O)N[C@H](C(C)C)C(=O)N2)OC(=O)[C@H](C(C)C)NC1=O` [romidepsin], the “body weight vs vehicle” value in data set [1] is given as “neither the single agent nor the combination treatments had a significant impact on weight”. For the same molecule, in the data set on MIA PaCa-2 cells [2], the “glutamine rescue of mitochondrial function (ΔOCR)” value is reported as “impaired glutamine rescue of mitochondrial function”. The “mitochondrial function (OCR)” value in the data set with MIA PaCa-2 cells [3] is “impaired mitochondrial function”. In addition, the replication fork speed result with MIA PaCa-2 and KLM cells is recorded as “significant reduction”.
